Laboratory results published in patent US7045320B2, “Methods for producing L-amino acids” (priority 2001, dated 2006).
pKi: −log10 of the molar value.

Tests used:
Assay type in all cases: biochemical
[1] = molecular target: T1, Wild type trpE anthranilate synthase (Escherichia coli, UniProt P00895); experiment: Ki value of anthranilate synthase (AS) to L-tryptophan, wild type
T1 construct: endogenous in cells
Experimental: (§1) Following the culture for 24–48 hours at 37° C., 5-methyltryptophan resistant clones were seeded on the aforementioned agar medium. In order to examine properties of the obtained mutant strain, Ki value of AS to L-tryptophan was measured (Bauerle R. et al., Methods in Enzymology, 142, pp.366–386, 1987). As a result, the mutant strains could be classified into two classes. The class 1 mutant strains had feedback resistant anthranilate synthase. […] The AS genes of these mutant strains were cloned and their nucleotide sequences were determined. Chromosomal DNA of each mutant strain was isolated and digested with restriction enzymes NheI and ClaI to isolate a fragment of about 5 kb, and this fragment was ligated with the NheI/ClaI fragment (4158 bp) of pBR322.
(§2) E. coli KB 862 (trpE) (DSM7196) was transformed with the ligation reaction product. A clone that could grow on a minimal medium not containing L-tryptophan was selected. All the plasmids complementing the trpE mutation contained the NheI/ClaI fragment of 5 kb. Further, this 5 kb NheI/ClaI fragment contained trpE, trpD, a sequence about 0.8 kb upstream from trpE, and a sequence about 1 kb downstream from trpD. Differences in amino acid sequences of mutant AS encoded by plasmids (pE0, pE5, pE6, pE8) contained in the mutant strains and their Ki values are shown in Table 1.

[2] = molecular target: T2, TrpE5 mutant anthranilate synthase (Escherichia coli, UniProt P00895, P21S); experiment: Ki value of anthranilate synthase (AS) to L-tryptophan, TrpE5
T2 construct: endogenous in cells; host or cells: 5-methyltryptophan-resistant mutant of E. coli K12 YMC9 (gene later cloned as pE5)
T2 sequence (P00904 2-531): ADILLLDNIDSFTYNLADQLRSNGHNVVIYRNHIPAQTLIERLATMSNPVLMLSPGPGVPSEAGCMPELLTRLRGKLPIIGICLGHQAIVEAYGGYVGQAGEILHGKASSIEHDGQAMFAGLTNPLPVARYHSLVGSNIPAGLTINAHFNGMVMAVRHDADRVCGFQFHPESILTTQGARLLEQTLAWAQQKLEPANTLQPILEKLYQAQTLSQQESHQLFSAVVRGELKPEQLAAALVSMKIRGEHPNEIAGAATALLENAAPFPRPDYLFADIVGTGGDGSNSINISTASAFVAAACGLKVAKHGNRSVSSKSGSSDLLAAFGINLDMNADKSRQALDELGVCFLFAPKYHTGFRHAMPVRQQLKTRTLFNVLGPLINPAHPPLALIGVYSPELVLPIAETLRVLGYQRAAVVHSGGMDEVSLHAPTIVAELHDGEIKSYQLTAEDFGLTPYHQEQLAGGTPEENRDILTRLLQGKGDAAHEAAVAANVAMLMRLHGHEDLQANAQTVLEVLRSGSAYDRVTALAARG
T2 sequence (P00895 whole entry P21S): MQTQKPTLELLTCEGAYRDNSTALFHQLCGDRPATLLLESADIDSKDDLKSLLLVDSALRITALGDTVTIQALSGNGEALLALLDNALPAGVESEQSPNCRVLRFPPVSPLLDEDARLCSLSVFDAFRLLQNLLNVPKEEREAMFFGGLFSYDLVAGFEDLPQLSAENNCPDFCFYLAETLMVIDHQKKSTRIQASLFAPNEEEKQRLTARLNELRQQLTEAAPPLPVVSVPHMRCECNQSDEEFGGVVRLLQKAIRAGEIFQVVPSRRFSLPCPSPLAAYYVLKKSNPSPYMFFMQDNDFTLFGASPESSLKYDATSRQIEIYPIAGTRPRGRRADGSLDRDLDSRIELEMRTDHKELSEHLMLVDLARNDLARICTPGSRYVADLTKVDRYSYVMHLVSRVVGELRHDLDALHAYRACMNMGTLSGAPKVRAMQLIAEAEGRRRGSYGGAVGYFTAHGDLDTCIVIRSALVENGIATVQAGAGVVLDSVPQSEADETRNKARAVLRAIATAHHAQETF
Experimental: as §1, §2

[3] = molecular target: T3, TrpE6 mutant anthranilate synthase (Escherichia coli, UniProt P00895, K50E/S40F); experiment: Ki value of anthranilate synthase (AS) to L-tryptophan, TrpE6
T3 construct: endogenous in cells; host or cells: 5-methyltryptophan-resistant mutant of E. coli K12 YMC9 (gene later cloned as pE6)
T3 sequence (P00895 whole entry S40F/K50E): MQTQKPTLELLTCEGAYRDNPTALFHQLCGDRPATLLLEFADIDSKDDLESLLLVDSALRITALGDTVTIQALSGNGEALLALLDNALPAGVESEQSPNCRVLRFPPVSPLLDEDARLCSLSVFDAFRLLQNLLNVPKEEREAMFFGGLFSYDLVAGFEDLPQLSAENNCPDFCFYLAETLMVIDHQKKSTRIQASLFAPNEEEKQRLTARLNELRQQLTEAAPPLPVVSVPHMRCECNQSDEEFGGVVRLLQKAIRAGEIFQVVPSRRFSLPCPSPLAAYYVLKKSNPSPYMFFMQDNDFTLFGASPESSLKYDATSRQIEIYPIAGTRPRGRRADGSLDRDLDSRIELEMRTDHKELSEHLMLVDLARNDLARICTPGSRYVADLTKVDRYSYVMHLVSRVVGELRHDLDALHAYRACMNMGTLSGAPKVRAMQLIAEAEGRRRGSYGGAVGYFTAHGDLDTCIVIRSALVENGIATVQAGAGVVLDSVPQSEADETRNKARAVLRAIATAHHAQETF
T3 sequence (P00904 2-531, further chain): as the sequence (P00904 2-531) above
Experimental: as §1, §2

[4] = molecular target: T4, TrpE0 mutant anthranilate synthase (Escherichia coli, UniProt P00895, K50E); experiment: Ki value of anthranilate synthase (AS) to L-tryptophan, TrpE0
T4 construct: endogenous in cells; host or cells: 5-methyltryptophan-resistant mutant of E. coli K12 YMC9 (gene later cloned as pE0)
T4 sequence (P00904 2-531): as above
T4 sequence (P00895 whole entry K50E): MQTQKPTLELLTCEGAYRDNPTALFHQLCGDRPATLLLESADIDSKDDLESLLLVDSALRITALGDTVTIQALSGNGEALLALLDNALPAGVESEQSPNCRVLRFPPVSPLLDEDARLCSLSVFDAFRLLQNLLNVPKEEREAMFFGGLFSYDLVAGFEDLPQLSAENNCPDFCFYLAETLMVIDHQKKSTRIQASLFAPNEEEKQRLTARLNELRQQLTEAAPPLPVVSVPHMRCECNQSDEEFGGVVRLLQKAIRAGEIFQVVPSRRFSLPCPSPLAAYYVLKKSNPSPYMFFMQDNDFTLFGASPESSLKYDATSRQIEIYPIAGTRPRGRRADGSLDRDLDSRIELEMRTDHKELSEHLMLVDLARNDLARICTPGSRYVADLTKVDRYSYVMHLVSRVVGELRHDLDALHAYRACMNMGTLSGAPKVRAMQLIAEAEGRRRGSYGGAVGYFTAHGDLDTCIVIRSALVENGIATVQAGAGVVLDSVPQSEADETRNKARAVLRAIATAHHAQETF
Experimental: as §1, §2

T1 sequence (P00904 2-531): as the sequence (P00904 2-531) above
T1 sequence (P00895 whole entry): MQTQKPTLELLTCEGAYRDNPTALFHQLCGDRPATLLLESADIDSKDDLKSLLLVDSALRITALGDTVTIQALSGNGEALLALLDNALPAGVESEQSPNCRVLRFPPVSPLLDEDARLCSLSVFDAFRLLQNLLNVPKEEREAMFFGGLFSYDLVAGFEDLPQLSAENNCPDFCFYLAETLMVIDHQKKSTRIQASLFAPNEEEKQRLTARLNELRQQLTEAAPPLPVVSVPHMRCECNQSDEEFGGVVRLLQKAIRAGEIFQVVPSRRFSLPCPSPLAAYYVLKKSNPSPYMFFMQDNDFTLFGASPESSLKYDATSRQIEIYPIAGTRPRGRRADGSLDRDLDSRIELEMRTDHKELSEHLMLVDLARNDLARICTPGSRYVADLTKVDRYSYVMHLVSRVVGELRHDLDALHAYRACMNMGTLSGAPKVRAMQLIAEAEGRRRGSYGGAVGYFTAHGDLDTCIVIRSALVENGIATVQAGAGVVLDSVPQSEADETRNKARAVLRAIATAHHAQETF

N[C@@H](Cc1c[nH]c2ccccc12)C(=O)O [L-tryptophan]
pKi [1]: 5.00 | pKi [2]: 2.52 | pKi [3]: < 1.82 | pKi [4]: 4.00
